Here are results for one compound from paper PMC11187217, “Anti-adhesive, anti-biofilm and fungicidal action of newly synthesized gemini quaternary ammonium salts” (Scientific Reports, 2024).

Molecules are shown by their SMILES.

This data set concerns Salmonella Typhimurium TA100. As to conditions: TA100, positive control 15 μg/mL. The protocol:
The mutagenic potential of the tested gemini QAS was determined using the Ames test[83] using Salmonella Typhimurium TA98 and Salmonella Typhimurium TA100 with defects in histidine biosynthesis. The culture of S. Typhimurium TA98 and S. Typhimurium TA100 was incubated with shaking at 37 °C for 18 h, centrifuged (3000 rpm, 5 min) and OD = 1.5 was determined, at a wavelength of λ = 590 nm. The agar was dissolved and cooled to 42 °C. […] The media were incubated for 48 h at 37 °C. The positive control for the S. Typhimurium TA98 strain was acriflavin (100 μg/ml), and for the S. Typhimurium TA100 strain, sodium azide (15 μg/ml). The negative control was the culture without tested compound and with NaCl (0,9%). After incubation, the colonies were counted and the mutagenicity index (MR) was determined—the ratio of the number of revertants resulting from the mutagenic effect of the tested compound to the number of spontaneous revertants. Experiment was performed in three repetitions.

For `[N-]=[N+]=[N-].[Na+]` [sodium azide, reference compound], the “Mutagenicity ratio (MR)” value is given as 25.5. The compound further gave a Number of colonies (± SD) of 5116.0 ± 5.66.
